From patent US8389468B2, “Approach to the treatment of compartment syndrome” (Lantmannen AS-Faktor AB, priority 2006, dated 2013)
“Also recorded” adds a separate entry of the source.

Assays:
[1] = system: HSV-1; assay: Immunohistochemical demonstration of HSV antigens in brain, mice; type: in vivo; settings: instillation twice daily in right nostril, six days
Description: An alternative explanation to the improved survival of HSV-1 infected animals could be that the treatment with AF-16 prevented the virus from multiplying and/or spreading in the brain. […] Adult rats were infected by having a solution of the herpes simplex virus type 1 (HSV-1; strain 2762, batch 041028; 1.7×10^7 PFU/mL) instilled in their right nostril. Half of the animals received 10 min later 25 pi_ (1 or 10 pg) of AF-16 in their right nostril, and had thereafter the same dose of AF-16 instilled every morning at 8 AM and every night at 6 PM until the experiment was terminated on day 6. The other groups of the HSV-1 infected rats received at the same time intervals 25 pL of the vehicle, PBS. The animals were closely watched for signs of general sickness and of behavioral and motor dysfunction. The animals were sacrificed by an overdose of anesthetics on day 6, the skull opened and the brain removed. The brains, including the olfactory bulbs, were fixed by immersion in buffered formalin for at least a day. The brains were the dissected and divided in several specimens, which were processed for light microscopic investigation after paraffin embedding and sectioning. The sections were processed for routine staining and for immunohistochemical visualization of HSV-1 proteins (FIG. 4). […] Note the distinct staining of the nerve cells (black in FIG. 4a-c).

[2] = system: intervertebral discs; assay: Injured or loaded intervertebral discs; type: in vivo, rodents, rabbits and pigs
Description: The intervertebral discs, which separate the vertebral bodies in the spine, adjust their dimensions according to the actual load many times a day. The water content in the avascular nucleus pulposus and the annulus fibrosus in a disc is dependant on the supply of fluid, ions, nutrients and oxygen from adjacent ligaments and from the end plates of the vertebrae (Cf. Holm et al., 2007). Vast products from an avascular disc must pass through the same obstacles prior to reaching vascular systems. Therefore, rodents, rabbits and pigs have been assessed regarding effects of AF protein and of AF peptides with regard to effects on the intervertebral discs when loaded and unloaded. […] It is thus disclosed that the AF compounds are beneficial in reducing the swelling and tissue damage at trauma or deformation and/or excessive load on intervertebral discs.

[3] = system: Musculus extensor digitorum longus (EDL); assay: Ischemic injury of skeletal muscle (EDL), compartment pressure; type: in vivo, rat
Description: On the hind leg, the large vessels entering the Musculus extensor digitorum longus (EDL) were occluded for 1-3 hours by applying external pressure load (Cf. Jennische & Hansson, 1987; Jennische, Skottner & Hansson, 1987). Thereafter, the blood flow was allowed to resume, and the muscle enclosures and the skin incision repaired and sutured. […] A CS developed as the tissue and the interstitial tissue accumulated fluid in such a closed compartment and additionally the muscle tissue turned swollen and oedematous. The pressure within such an enclosed compartment increased, resulting in the development of a CS. Surgical intervention was required to prevent that parts of the skeletal muscle tissue became necrotic, if there was no additional treatment. […] Thus, treatment with AF-16 prevented the development of a CS, eventually reducing the tissue damage and loss.

[4] = system: Staphylococcus areus (SA; strain LS1) infected joints; assay: Arthritis by arthritogenic Staphylococcus areus (strain LS1), joint pressure; type: in vivo, rat
Description: Joints are enclosed by tender, noncompliant collagen capsules, further characterised by low elasticity but plasticity. At arthritis, the pressure in the synovial fluid in the joint cavity turns elevated, and inflammation adds to the symptoms. A CS is prevalent. In order to investigate if treatment with AF-16 could prevent or at least reduce the development of such a CS, adult rats were infected by systemic injection of a solution of an arthritogenic Staphylococcus areus (SA; strain LS1). One group of animals (n=3) were treated with AF-16 while a second group of rats (n=3) just received the vehicle, PBS. After a few days the knee joints and later on additional limb and foot joints turned tender, swollen and got elevated pressure in the joint cavities, as measured with the Samba Fibre Optic Pressure probe (Samba System 3200 & Samba Preclin 420 sensor; Samba Sensors AB, Gruvgatan 6, SE 42130 V. Frolunda, Sweden), as well as in the immediately surrounding tissue. The pressure in a normal synovial large joint is 0-5 mm Hg, but could increase more than five-fold in infected, inflamed joints. The interstitial fluid pressure in the subcutaneous tissue at a distance from the infected joint was measured for comparison and found to remain within normal limits, ±2 mm Hg. […] Infected animals, which only received treatment with the vehicle, PBS, developed CS of with time increasing severity.

[5] = system: HSV-1 infected rats; assay: Outflow of CSF through cribriform lamina, Evans blue-albumin (EBA) infusion in HSV-1 infected rats; type: in vivo, rat; settings: 10 or 25 pg intranasally
Description: FIG. 6: Sections through the cribriform lamina, a bone structure separating the brain from the nose and through which the olfactory nerve pass. In the left figure (a) the dye-protein complex Evans blue-albumin (EBA) was infused into the subarachnoid space at day 5 after HSV-1 infection. The animal suffered from moderate encephalitis. Note that there is no red EBA in the cribriform lamina, nor in the nose, as the passage between the brain and nasal cavity is blocked. In the right figure (b) EBA was infused into the subarachnoid space of a non-infected, normal rat.
Additional HSV-1 infected animals with distinctly overt symptoms were as well treated with 10 or 25 pg AF-16 intranasally, starting on day 5, 6 or 7, i.e. after having had the vehicle during the previous days. […] Thus, non of the acutely AF-16 treated rats had any persistent signs of deleterious ICP and thus no CS developed. […] That is seen in the mentioned figure (FIG. 5 a) as there is no red staining of the right half on the figure. However, treatment with 10 or 25 pg AF-16 intranasally turned the picture in HSV-1 infected rats as in the normal, non-infected ones. […] Thereby the outflow of CSF was restored and the ICP turned normal.

[6] = system: pericardium; assay: Traumatized pericardium, fluid accumulation; type: in vivo, rat; settings: treated for a week after rubbing of pericardium
Description: Adult rats had experimentally a CC condition induced affecting the pericardium and assessed with regard to effects of treatment with the peptide AF-16. The pericardial cavity is delimiting the heart, forming a sac filled with a minimal volume of fluid, enabling accommodation of the sliding movements resulting from the sudden and forceful contractions of the heart. The pericardial cavity is towards its periphery enclosed by a parietal membrane rich in collagen. On anaesthetized rats the pericardium was opened surgically, through a small “window” in the diaphragm and mediastinum. The inside of the pericardium was traumatized by rubbing it surgically through the incision. These animals were divided in two groups, one treated with AF-16 while the other had just the vehicle, PBS. […] In contrast, those animals that after the rubbing had been treated with the vehicle had their pericardium filled with fluid under pressure, and had further numerous fibrin strands and inflammatory cells. Additionally, the parietal pericardial envelop was swollen, inflamed and infiltrated by numerous enlarged, in parts newly formed blood vessels.

VCHSKTRSNPENNVGL [AF-16]
distribution or extent of virus antigens in the brain vs vehicle [1]: no obvious difference in the distribution or extent of virus antigens | stiffness of intervertebral connections and deformation induced ([2]; after supramaximal loads or trauma, vs vehicle): closer to normal | damage to nucleus pulposus (light microscopy) ([2]; in vivo): less damage to the nucleus pulposus | swelling and inflammatory reactions of injured intervertebral discs ([2]; in vivo): reduced the swelling and the inflammatory reactions | pressure within the muscle compartment ([3]; EDL vessels occluded 1-3 hours, Samba pressure sensors): turn about normal | extent and volume of muscle tissue damage (light microscopy) ([3]; vs vehicle): reduced the extent and volume of the tissue damage | joint tenderness, swelling, pain ([4]; SA infected large joint): did not have that tender, swollen and painful joints | pressure in the infected joint ([4]; SA infected large joint, n=3, normal joint 0-5 mm Hg): close to normal pressure in the joint | number of S. areus in synovial fluid, treated vs not ([4]; larger joints): about the same | outflow of CSF to nasal mucosa (EBA staining of cribriform lamina) [5]: opened the passage for the CSF through the cribriform plate; also recorded: reversed the block of the outflow of CSF | fluid in pericardial cavity [6]: just minor accumulation of fluid in their pericardial cavity, at low pressure
